Data as given in patent US20200291082A1, “PREVENTION AND TREATMENT OF GRAFT-VERSUS-HOST-DISEASE WITH DEFENSINS” (priority 2017, published 2020).
“Also recorded” adds a separate entry of the source. No end group written: not given here.

How the values were obtained:
[1] = test system: Dextran Sodium Sulphate induced colitis; assay: prophylactic murine 10-day oral Dextran Sodium Sulphate induced colitis model, oral hBD2 versus oral prednisolone (Example 2); assay type: in vivo, C57BL/6 mice; conditions: for histological score, compared with prednisolone: all three oral hBD2 dose groups versus prednisolone 1 mg/kg; for body weight loss / body weight change: all three oral hBD2 dose levels (0.05, 0.5, 5 mg/kg twice per day), 10 days; for histological score: versus vehicle, Prednisolone 1 mg/kg twice per day p.o., oral hBD2 all doses
Experimental: Anti-inflammatory effect of oral administration of hBD2 versus oral prednisolone in a prophylactic murine, 10-day, oral Dextran Sodium Sulphate induced colitis model.
50 male C57BL/6 mice housed in groups of five per cage were allocated to 5 different treatment groups. All animals had their drinking water supplemented with DSS 2% for 7 days to induce colitis resulting in significant inflammation and injury of the colonic tissue. The animals were treated with oral hBD2 dosed at three different dose levels twice per day or prednisolone 1 mg/kg twice per day or PBS as vehicle for 10 days.
A disease activity index (DAI) scoring system was applied for clinical assessment (FIG. 7). The animals were sacrificed on day 10 and colon removed for histological assessment employing a histological scoring system (FIG. 8).

[2] = test system: CD4+CD25+ Tcell transfer induced colitis; assay: therapeutic murine 14 weeks CD4+CD25+ Tcell transfer induced colitis model (Example 6); assay type: in vivo, SCID mice; conditions: hBD2 1 mg/kg s.c. OD, Dexamethasone 0.3 mg/kg i.p. OD, Enbrel 100 μg/mouse s.c. twice weekly
From the text: Efficacy of s.c. administration of hBD2 versus s.c. anti TNF-α (Enbrel) and intraperitoneal dexamethasone in a therapeutic, murine, 14 weeks, CD4+CD25+ Tcell transfer induced colitis model.
70 female BALB/c mice housed in groups of five per cage were allocated to 7 different treatment groups. Colitis was induced in SCID mice by transplantation of CD4+CD25+ Tcells from BALB/c mice. Lymphocytes isolated from spleen and lymph nodes from BALB/c mice were subjected to negative selection of CD4+ Tcells. Afterwards, CD4+CD25+ cells were positively isolated by binding to the beads from the CD4+ Tcell suspensions and the CD4+CD25− were collected from the supernatant. The animals were treated with hBD2, 0.1 mg/kg s.c. OD; 1 mg/kg s.c. OD or 3 mg/kg s.c. OD or with mouse anti TNFα 100 μg/mouse s.c. twice weekly or with dexamethasone 0.3 mg/kg intraperitoneally OD or PBS s.c. as vehicle from day 7 and 86 consecutive days.
Clinical assessment was based on body weight loss, stool consistency and presence of blood per rectum. The animals were sacrificed on day 95 and colon removed for assessment of weight and myeloperoxidase activity.

[3] = test system: Dextran Sodium Sulphate induced colitis; assay: prophylactic murine 7-day Dextran Sodium Sulphate induced colitis model, oral and s.c. hBD2 versus oral cyclosporine (Example 4); assay type: in vivo, C57BL/6 mice
From the text: Anti-inflammatory effect of oral and s.c. administration of hBD2 versus oral cyclosporine in a prophylactic, murine, 7-day, Dextran Sodium Sulphate induced colitis model.
80 male C57BL/6 mice housed in groups of five per cage were allocated to 7 different treatment groups. All animals had their drinking water supplemented with DSS 3% for 7 days to induce colitis characterized by epithelial damage, disruption of crypt architecture and a moderate inflammation characterized by accumulation of mononuclears and neutrophils in mucosa and submucosa. The animals were treated with oral hBD2 dosed at 0.6 mg/kg BID or 0.4 mg/kg TID; hBD2 dosed s.c. at 0.15 mg/kg BID or 0.1 mg/kg TID; or cyclosporine 50 mg/kg OD or water for 7 days.
Clinical assessment was conducted as per a scoring system (0=no blood in stool; 1=evidence of blood in stool and 2=severe bleeding). The animals were sacrificed on day 7 and colon removed for histological assessment.

[4] = test system: house dust mite model of allergic asthma; assay: therapeutic intranasal versus oral hBD2 in murine house dust mite model of allergic asthma, lung histopathology and cytokines (Example 11); assay type: in vivo, BALB/c mice
Experimental: To determine and assess the efficacy of IN versus oral therapeutic intervention with administration of defensins in a murine house dust mite model of allergic asthma.
Treatment regime: Female 7-10 weeks old BALB/c mice randomly allocated into 4 study groups one day prior to study start were subcutaneously (SC) sensitized to house dust mite (100 μg HDM in 200 μL saline plus Freund's complete adjuvant in 0.9% saline). Mice were intranasally (IN) challenged with HDM on day 14 (HDM 25 μg in 50 μL of saline). hBD2 was administered IN or orally (0.4 mg/kg TID IN; 0.4 mg/kg TID orally, 50 μL phosphate buffered saline) on day 14. The initial dose was administered 60 minutes prior to challenge, and the subsequent doses approximately 6 hours apart.
Lung tissue sampling: Lungs were removed from the thorax, snap frozen in liquid nitrogen and stored frozen at −80 degrees Celsius until analysis of cytokine concentration of IL-4, IL-5, IL-8 (KC), IL-9 and IL-13 in lung homogenate by ELISA. Lungs were inflated in situ in 10% buffered formalin, removed from thorax, placed individually in 10% buffered formalin, paraffin embedded in toto, sectioned and H&E/PAS stained.
Blood sampling: All terminal blood samples were collected via jugular vein bleeds. Blood was sampled to Li-heparin tubes, put on ice and immediately centrifuged at 4° C. Plasma was separated and stored at -80° C. until the potential SCFA analysis. Lung tissue sampling: The lungs were exposed and excised by gently opening the thorax and by cutting down either side of the sternum and ribs and trimming back. Lungs from the first 6 animals per group were removed from thorax, snap frozen in liquid nitrogen and stored frozen at −80° C. until analysis of cytokine concentration by ELISA.
Lungs from the other 8 animals per group were inflated in situ with 10% buffered formalin, removed from thorax, placed individually in 10% buffered formalin, paraffin embedded in toto, sectioned and H&E/PAS stained. The paraffin blocks were retained for the IHC analysis.
Read-Outs • Histopathology (H&E; PAS) (N=8/group; total N=32) • Cytokines in lung tissue homogenates (IL-4, IL-5, IL-8 (KC), IL-9 and IL-13) (N=6/group; total N=24)
Cellular influx (mononuclears, eosinophils, neutrophils) was assessed semi-quantitatively on H&E stained slides separately for peri-bronchial/bronchiolar and perivascular space as follows: • 0 absent • 1 few scattered inflammatory cells • 2 larger aggregates • 3 marked accumulation of cells
Overall score for inflammation was calculated as the sum of all individual scores.

[5] = test system: house dust mite model of allergic asthma; assay: therapeutic intranasal versus oral hBD2 in murine house dust mite model of allergic asthma (Example 10); assay type: in vivo, BALB/c mice; conditions: hBD2, both dosing routes
[6] = all four hBD2 dosing groups (oral 0.6 mg/kg BID, 0.4 mg/kg TID; s.c. 0.15 mg/kg BID, 0.1 mg/kg TID), cyclosporine 50 mg/kg OD, 7 days

human beta defensin 2 (GIGDPVTCLKSGAICHPVFCPRRYKQIGTCGLPGTKCCKKP; not fully specified (bridges); ends and bridges not checked; listed as Homo sapiens) [hBD2]
disease activity index score, compared with prednisolone ([1]; FIG. 11, orally administered hBD2 versus prednisolone 1 mg/kg): statistically significant superiority
histological score, compared with prednisolone [1]: significantly better than Prednisolone
histological score, compared with prednisolone ([1]; listed as HBD2): on par with prednisolone 1 mg/kg
body weight loss / body weight change [1]: dramatically reduced loos of body weight
body weight loss / body weight change ([1]; listed as HBD2hBD2): weight preserving effect
body weight loss ([1]; high dose group hBD2 5 mg/kg BID oral): most pronounced
disease activity index (DAI) ([1]; high dose hBD2 5 mg/kg BID oral, compared with lower doses and Prednisolone): significantly better effect on DAI
disease activity index (DAI) ([1]; two lower dose levels of oral hBD2 (0.05, 0.5 mg/kg twice per day)): statistically significant effect on DAI on par with Prednisolone
histological score [1]: statistically significant effect on histological score
histological score ([1]; listed as HBD2): statistical significant effect
myeloperoxidase activity ([2]; colon, day 95): statistically significant and similar effect; also recorded: on par with 100 μg/mouse anti TNF-α s.c. twice weekly (Enbrel) and 0.3 mg/kg dexamethasone intraperitoneally OD
clinical score (body weight loss, stool consistency, presence of blood per rectum) [2]: statistically significant and similar effect on clinical score; also recorded: on par with 100 μg/mouse anti TNF-α s.c. twice weekly (Enbrel) and 0.3 mg/kg dexamethasone intraperitoneally OD
colon weight ([2]; day 95): statistically significant and similar effect on colon weight; also recorded: on par with 100 μg/mouse anti TNF-α s.c. twice weekly (Enbrel) and 0.3 mg/kg dexamethasone intraperitoneally OD
clinical score, s.c. versus oral dosing ([3]; FIG. 15): seemed more efficacious than oral dosing
clinical scores [3, 6]: highly statistically significant improvement; also recorded: statistical significant effect of hBD2 on par with cyclosporine
maintenance of colon length [3, 6]: highly statistically significant improvement; also recorded: statistical significant effect of hBD2 on par with cyclosporine
clinical score, TID versus BID dosing ([3]; both administration routes): more efficacious than BID dosing; also recorded: superiority of TID dosing of hBD2 over BID dosing
IL-9 level in lung tissue homogenates ([4]; IN administration): Significant effects
IL-13 level in lung tissue homogenates ([4]; IN administration): Significant effects
histological inflammation of lung tissue ([4]; hBD2 both oral and intranasal 0.4 mg/kg TID on day 14, versus HDM challenged vehicle): effectively inhibited the increase in histological inflammation of lung tissue
IL-4 level in lung tissue homogenates ([4]; oral administration): Significant effects
IL-9 level in lung tissue homogenates ([4]; oral administration): Significant effects
IL-13 level in lung tissue homogenates ([4]; oral administration): Significant effects
IL-4 level in lung tissue homogenates [5]: significant effects
IL-5 level in lung tissue homogenates [5]: significant effects
